The results in this text go back to patent US5648366A, “Substituted pyrrolidin-3-yl-alkyl-piperidines” (Merrell Pharmaceuticals Inc., priority 1995, dated 1997).

The assay has as its target T1, NK2 receptor (Bos taurus, UniProt P05363).
T1 construct: expressed in transfected cells; host or cells: SKLKB82#3 cells (murine B82 fibroblasts by own knowledge)
T1 sequence (P05363 1-384): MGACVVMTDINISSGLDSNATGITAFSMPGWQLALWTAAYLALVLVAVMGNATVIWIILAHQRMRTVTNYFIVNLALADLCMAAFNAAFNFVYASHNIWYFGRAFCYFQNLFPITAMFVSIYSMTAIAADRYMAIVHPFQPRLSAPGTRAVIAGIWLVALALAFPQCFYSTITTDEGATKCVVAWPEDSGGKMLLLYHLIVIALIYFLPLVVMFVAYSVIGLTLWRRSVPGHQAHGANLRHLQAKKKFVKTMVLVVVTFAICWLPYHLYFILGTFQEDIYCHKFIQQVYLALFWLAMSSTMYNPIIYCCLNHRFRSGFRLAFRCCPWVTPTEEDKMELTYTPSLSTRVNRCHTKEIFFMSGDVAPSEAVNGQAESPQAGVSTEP
In words: Antagonism of NK2 receptor mediated (NKA-induced) phosphatidylinositol turnover in SKLKB82#3 cells. In kind it is cell-based. As to the method:
ANTAGONISM OF NK1 AND NK2 RECEPTOR MEDIATED PHOSPHATID[…]
Tachykinin-mediated inositol phosphate accumulation was measured in UC11 or SKLKB82#3 cells in the presence and absence of NK1 or NK2 receptor antagonists, respectively. Tissues were incubated in Krebs-Henseleit buffer at 37° C. with 95% O2 -5% CO2 gassing. Tissues were then incubated with fresh buffer containing 100 μCi of myo-[2-^3 H(N)] inositol at 37° C. for 60 min with gentle gassing. After washing twice in 5 ml room temperature buffer containing 10 mM LiCl, tissues were incubated for 30 min at room temperature with a buffer change at 15 min. Buffer was removed and Krebs-Henseleit buffer (containing 40 μg/ml bacitracin, 4 μg/ml each of leupeptin and chymostatin, 0.1% bovine serum albumin and 10 mM each of thiorphan and LiCl) added. After 15 min, SP was added to UC11 cells or NKA to SKLKB82#3 cells at various concentrations to start the reaction. After incubation for 60 min at room temperature the reaction was terminated by addition of 930 μl chloroform: methanol (1:2 by volume) to each tube, followed by 310 μl chloroform and 310 μl doubly distilled water. Samples were vortexed, centrifuged, and 0.9 ml of the aqueous (top) phase removed and added to 2 ml ddH2 O. The mixture was vortexed and loaded onto a 50% Bio-Rad AG 1-X8 (formate form, 100-200 mesh) exchange column (Bio-Rad Laboratories, Hercules, Calif.). The columns were washed, in order, with: 1) 10 ml doubly distilled water, 2) 5 ml of 5 mM disodium tetraborate/60 mM sodium formate, and 3) 5 ml of 1M ammonium formate/0.1M formic acid. The third elution was collected and 1 ml counted in 7 ml scintillation fluid. A 50 μl aliquot of the organic (bottom) phase was removed, dried in a scintillation vial and counted in 7 ml scintillation fluid.
The ratio of DPM in the aqueous phase aliquot (total inositol phosphates) to the DPM in the 50 μl organic phase aliquot (total [^3 H]inositol incorporated) was calculated for each sample. Data are expressed as a percent of agonist-induced accumulation of [^3 H]-inositol phosphates over basal levels. The ratios in the presence of test compound and/or standards were compared to the ratios for control samples (i.e. no stimulating agonist). Dose-response graphs were constructed and the abilities of the test compounds to inhibit tachykinin-induced phosphatidyinositol turnover determined with the aid of a computer program. […] Data is expressed as percent stimulation of total inositol phosphate accumulation over basal levels and normalized to the maximum response produced by SP. […] Schild analysis is performed using dose response curves (such as those presented in FIGS. 1a and 1b) to obtain a value indicative of the strength of a competitive antagonist and is expressed as the pA2, which is the negative logarithm of the molar concentration of antagonist which reduces the effect of a dose of agonist to one-half of that expected at the dose of agonist.

Consider `COc1cc(C(=O)N2CCC(CCN3CCC(C(N)=O)(c4ccccc4)CC3)(c3ccc(Cl)c(Cl)c3)C2)cc(OC)c1OC` (centres unmarked) [Example 3, 1-[2-[3-(3,4-dichloro-phenyl)-1-(3,4,5-trimethoxy-benzoyl)-pyrrolidin-3-yl]-ethyl]-4-phenyl-piperidine-4-carboxylic acid amide], for which, where the note is “SKLKB82#3 cells”, the “antagonism of NKA induced PI turnover (in words, FIG. 1b)” value is recorded as “dose related antagonism”. Moreover, the “agonist activity, PI turnover in SKLKB82#3 cells (in words)” value (compound alone) is given as “no agonist activity”.
